Measurements as given in ChEMBL document CHEMBL5352497, “Aromatic hydrazides: A potential solution for Acinetobacter baumannii infections” (Eur J Med Chem, 2023).
Converted amounts (≈) assume the structure as drawn. The source made the active and inactive calls.

Experiments:
Klebsiella pneumoniae = test: Antibacterial activity against Klebsiella pneumoniae ATCC 27736; format: functional
Acinetobacter baumannii [1] = test: Antibacterial activity against Acinetobacter baumannii ATCC 19606; format: functional
Erythrocyte = test: (§1) Hemolytic activity in mouse RBC at 32 ug/ml incubated for 1 hr; format: toxicity, cell-based; conditions: erythrocyte, 1 h, dose 32 µg/ml
Escherichia coli = test: Antibacterial activity against Escherichia coli MC1061; format: functional
Acinetobacter baumannii [2] = test: microbe, parasite or virus in culture; conditions: ATCC 19606
[3] = tested on: Staphylococcus epidermidis; test: Antibacterial activity against Staphylococcus epidermidis ATCC 12228; format: functional
Staphylococcus aureus = test: Antibacterial activity against Staphylococcus aureus ATCC 25923; format: functional
Salmonella enterica = test: Antibacterial activity against Salmonella enterica ATCC 14028; format: functional
Acinetobacter baumannii [4] = test: Antibacterial activity against Acinetobacter baumannii BAA1605; format: functional
Acinetobacter baumannii [5] = test: Bacteriostatic activity against Acinetobacter baumannii ATCC 19606 assessed as reduction in colony forming unit incubated for 24 hrs; format: functional, organism-based
[6] = Hemolytic activity in mouse RBC at 8 ug/ml incubated for 1 hr; format: toxicity, cell-based, Erythrocyte; conditions: red blood cells (erythrocytes), at 8 µg/mL, read-out: Activity
Bacillus anthracis = test: Antibacterial activity against Bacillus anthracis Sterne F32; format: functional
Acinetobacter baumannii [7] = test: Bacteriostatic activity against Acinetobacter baumannii ATCC 19606 assessed as reduction in colony forming unit incubated for 9 hrs; format: functional, organism-based
Acinetobacter baumannii [8] = test: Induction of resistance development in Acinetobacter baumannii ATCC 19606 assessed as fold increase in MIC measured after 15 passages; format: functional
HEK293 [9] = test: Cytotoxicity against HEK293 cells at 8 ug/ml; format: toxicity, cell-based; conditions: human, dose 8 µg/ml
Acinetobacter baumannii [10] = test: Antibiofilm activity against Acinetobacter baumannii ATCC 19606 assessed as inhibition of biofilm formation at 0.5 ug/ml by crystal violet assay; format: functional; set-up: scale not given: the % may be the effect or the level left; conditions: dose 0.5 µg/ml
Enterobacter cloacae = test: Antibacterial activity against Enterobacter cloacae ATCC 13047; format: functional
Pseudomonas aeruginosa = test: Antibacterial activity against Pseudomonas aeruginosa ATCC 27853; format: functional
HEK293 [11] = test: Cytotoxicity against HEK293 cells at 32 ug/ml; format: toxicity, cell-based; conditions: human, at 32 µg/mL
Acinetobacter baumannii [12] = test: Bactericidal activity against Acinetobacter baumannii ATCC 19606 assessed as reduction in colony forming unit at 1 to 4 times MIC measured after 24 hrs; format: functional, organism-based
[13] = as §1; format: toxicity, cell-based, Erythrocyte; conditions: red blood cells (erythrocytes), at 32 µg/mL, read-out: Activity

| SMILES | MIC (Klebsiella pneumoniae) [µg/mL] | MIC (Acinetobacter baumannii [1]) [µg/mL] | Activity (Erythrocyte) | MIC (Escherichia coli) [µg/mL] | MIC [3] [µg/mL] | MIC (Staphylococcus aureus) [µg/mL] | MIC (Salmonella enterica) [µg/mL] | MIC (Acinetobacter baumannii [4]) [µg/mL] | hemolysis at 1 h, 8 ug/ml [6] [%] | MIC (Bacillus anthracis) [µg/mL] | Activity (HEK293 [9]) | MIC (Enterobacter cloacae) [µg/mL] | MIC (Pseudomonas aeruginosa) [µg/mL] | Activity (HEK293 [11]) [%] | also measured |
| --- | --- | --- | --- | --- | --- | --- | --- | --- | --- | --- | --- | --- | --- | --- | --- |
| O=C(O)c1cn(C2CC2)c2cc(N3CCNCC3)c(F)cc2c1=O [CIPROFLOXACIN] | ≤ 0.063 | 1 (≈ 3.02 µM) | Non-Toxic | ≤ 0.063 | ≤ 0.063 | ≤ 0.063 | ≤ 0.063 | 2 (≈ 6.04 µM) | < 10 | 1 (≈ 3.02 µM) |  |  |  |  | MIC (Acinetobacter baumannii [2]): 2 µg/mL (≈ 6.04 µM); Activity (Acinetobacter baumannii [5]): Active; Activity (Acinetobacter baumannii [7]): Active |
| O=C(NNc1ccc(Cl)cc1)c1ccc(F)cn1 | 64 (≈ 241 µM) | 1 (≈ 3.76 µM) | Non-Toxic | 16 (≈ 60.2 µM) | > 64 | > 64 | 64 (≈ 241 µM) | ≤ 0.125 | < 10 | > 64 | Non-Toxic | 16 (≈ 60.2 µM) | > 64 | 17 | fold change (FC) (Acinetobacter baumannii [8]): 2; Activity (Acinetobacter baumannii [10]): 30%; Activity (Acinetobacter baumannii [12]): Active |
| O=C(NNc1cccc(F)c1)c1ccc2ccccc2n1 |  |  |  |  |  |  |  |  | < 10 |  | Non-Toxic |  |  | 40 | hemolysis at 1 h, 32 ug/ml [13]: 20% |
| CCC(=O)NNc1ccc(Cl)cc1 | 16 (≈ 80.5 µM) | ≤ 0.125 | Non-Toxic | 16 (≈ 80.5 µM) | > 64 | > 64 | 64 (≈ 322 µM) | ≤ 0.125 | < 10 | > 64 | Non-Toxic | 16 (≈ 80.5 µM) | > 64 |  |  |
| O=C(NNc1ccc(Cl)cc1)c1ccco1 | 16 (≈ 67.6 µM) | 0.5 (≈ 2.11 µM) | Non-Toxic | 16 (≈ 67.6 µM) | 64 (≈ 270 µM) | 64 (≈ 270 µM) | 16 (≈ 67.6 µM) | ≤ 0.125 | < 10 | > 64 | Non-Toxic | 4 (≈ 16.9 µM) | > 64 |  |  |
